Measured values published in US20130259884A1, “PEPTIDES” ([…] SL, priority 2010, published 2013).
Where a SMILES comes first, the peptide text is derived from it.

Assay: Water solubility of peptides when preparing stock solutions
Type: physicochemical
Conditions: stock solution in sterile distilled water or 100% DMSO; read-out: solubility of peptide (water soluble or water insoluble, dissolved in DMSO)
Description: For challenge, peptides were administered as follows: • Individual peptides (soluble). Individual water soluble peptides were dissolved as 10, 5 or 2.5 mg/ml stock solutions in sterile distilled water. Before use, each peptide was diluted in water to 2 mg/ml and 10 μl of this 2 mg/ml mix was added to 990 μl of media. Then 100 μl of this peptide/media mix was added to 100 μl of media containing 350,000 PBMC in an ELISPOT anti-IL-4 coated cell culture plate well for a final peptide concentration of 10 μg/ml. Identically diluted media only was added to the cells and used for the no peptide media control wells (media only). • Individual peptides (DMSO). Individual water insoluble peptides were dissolved in 100% DMSO to a stock concentration of 50 mg/ml. Before use each peptide was diluted in water to 2 mg/ml and then 10 μl of the 2 mg/ml mix was added to 990 μl of cell-culture media. Then 100 μl of this peptide/media mix was added to 100 μl of media containing 350,000 PBMC in an ELISPOT anti-IL-4 coated cell culture plate well for a final peptide concentration of 10 μg/ml. Identically diluted media only was added to the cells and used for the no peptide media control wells (media only). • A combination preparation containing Alt a 1 soluble peptides (33.2, 34.3, 35.4, 35.5, 37.3.1, 37.4.1, L6-5.01, L10-1.01, L10-2.01, L10-3), called Alt a 1 Sol. Each peptide was diluted from water stock to 2 mg/ml in sterile distilled water. Then 10 μl of each peptide required for the combined preparation was mixed and brought up to 1 ml in media. Then 100 μl of this peptide/media mix was added to 100 μl of media containing 350,000 PBMC in an ELISPOT anti-IL-4 coated cell culture plate well for a final concentration of each peptide of 10 μg/ml. Identically diluted media only was used for the no peptide control wells (media only). • A combination preparation containing Alt a 1 DMSO peptides (32.2.1, 38.2.1, 35.2, 35.3, L6-2, L6-3, L6-4, 38.3, 37.2), called Alt a 1 DMSO. Each peptide was diluted from DMSO stock to 2 mg/ml in sterile distilled water. Then 10 μl of each peptide required for the combined preparation was mixed and brought up to 1 ml in media. Then 100 μl of this peptide/media mix is added to 100 μl of media containing 350,000 PBMC in an ELISPOT anti-IL-4 coated cell culture plate well for a final concentration of each peptide of 10 μg/ml. Identically diluted media only was used for the no peptide control wells (media only). • A combination preparation containing non-Alt a 1 soluble peptides (40.2, 41.2, 43.2, 44.2, 46.2, 47.2.1, 56.2, 57.2.1, 60.2, 62.2.1, 67.2, 71.3), called Alt a Other Sol. Each peptide was diluted from water stock to 2 mg/ml in sterile distilled water. Then 10 μl of each peptide required for the combined preparation was mixed and brought up to 1 ml in media, Then 100 μl of this peptide/media mix was added to 100 μl of media containing 350,000 PBMC in an ELISPOT anti-IL-4 coated cell culture plate well for a final concentration of each peptide at 10 μg/ml. Identically diluted media only was used for the no peptide control wells (media only). • A combination preparation containing non-Alt a 1 DMSO peptides (39.2, 42.2, 45.2, 48.2.1, 50.2, 51.2.1, 61.2.1, 66.3.1, 68.2.1, 70.2, 71.2, 72.2), called Alt a Other DMSO. Each peptide was diluted from DMSO stock to 2 mg/ml in sterile distilled water. Then 10 ul of each peptide required for the combined preparation was mixed and brought up to 1 ml in media, Then 100 μl of this peptide/media mix was added to 100 μl of media containing 350,000 PBMC in an ELISPOT anti-IL-4 coated cell culture plate well for a final concentration of each peptide at 10 μg/ml. Identically diluted media only was used for the no peptide control wells (media only).

Q: With `CC[C@H](C)[C@H](NC(=O)[C@H](C)NC(=O)[C@H](Cc1c[nH]c2ccccc12)NC(=O)[C@@H](N)C(C)C)C(=O)N[C@H](C(=O)N[C@@H](CC(C)C)C(=O)N[C@@H](CC(C)C)C(=O)N[C@@H](CO)C(=O)N[C@@H](CC(C)C)C(=O)N[C@H](C(=O)N[C@@H](CCC(N)=O)C(=O)N[C@@H](CC(C)C)C(=O)N[C@H](C(=O)N[C@H](C(=O)N1CCC[C@H]1C(=O)O)[C@@H](C)O)[C@@H](C)O)C(C)C)C(C)C` [Peptide 48.2.1, VWAIVLLSLVQLTTP] (H-VWAIVLLSLVQLTTP-OH) as the compound, how does the solubility read?
A: < 2500 µg/mL

Q: With `CC[C@H](C)[C@H](NC(=O)[C@H](CC(N)=O)NC(=O)[C@H](Cc1ccccc1)NC(=O)CN)C(=O)N[C@@H](CCCCN)C(=O)N[C@@H](C)C(=O)N[C@H](C(=O)N[C@@H](CC(N)=O)C(=O)NCC(=O)NCC(=O)N[C@H](C(=O)N[C@@H](CC(C)C)C(=O)N[C@@H](CC(=O)O)C(=O)N[C@@H](Cc1ccccc1)C(=O)N[C@H](C(=O)O)[C@@H](C)O)[C@@H](C)O)[C@@H](C)O` [Peptide 35.5, GFNIKATNGGTLDFT] (H-GFNIKATNGGTLDFT-OH) as the compound, how does the solubility read?
A: > 2500 µg/mL

Q: Which solubility does the source give for `CC[C@H](C)[C@H](NC(=O)[C@H](CC(N)=O)NC(=O)[C@H](Cc1ccccc1)NC(=O)CNC(=O)[C@H](CC(C)C)NC(=O)[C@H](CO)NC(=O)[C@H](CC(N)=O)NC(=O)[C@H](Cc1ccc(O)cc1)NC(=O)[C@H](Cc1ccc(O)cc1)NC(=O)[C@@H](NC(=O)CNC(=O)[C@@H](N)CCC(=O)O)[C@@H](C)O)C(=O)N[C@@H](CCCCN)C(=O)N[C@@H](C)C(=O)N[C@H](C(=O)O)[C@@H](C)O` [Peptide 35.2, EGTYYNSLGFNIKAT] (H-EGTYYNSLGFNIKAT-OH) here?
A: < 2500 µg/mL

Q: For `CC(C)C[C@H](NC(=O)CNC(=O)[C@H](C)NC(=O)[C@H](C)N)C(=O)N[C@@H](C)C(=O)N[C@@H](C)C(=O)N[C@@H](C)C(=O)N[C@@H](C)C(=O)N1CCC[C@H]1C(=O)N[C@@H](CC(C)C)C(=O)N[C@@H](CCC(=O)O)C(=O)N[C@@H](CO)C(=O)N[C@@H](CCCNC(=N)N)C(=O)N[C@@H](CCC(N)=O)C(=O)N[C@@H](CC(=O)O)C(=O)O` [Peptide 33.2, AAGLAAAAPLESRQD] (H-AAGLAAAAPLESRQD-OH), which solubility is on record?
A: > 2500 µg/mL

Q: Which solubility does the source give for `CC(C)C[C@H](NC(=O)[C@H](CCCCN)NC(=O)[C@H](CC(=O)O)NC(=O)[C@H](C)NC(=O)[C@H](CCC(N)=O)NC(=O)[C@H](C)NC(=O)[C@H](CO)NC(=O)[C@@H](NC(=O)[C@@H](NC(=O)[C@H](Cc1ccccc1)NC(=O)[C@H](CC(=O)O)NC(=O)[C@H](CC(C)C)NC(=O)[C@@H](NC(=O)CNC(=O)CN)[C@@H](C)O)[C@@H](C)O)C(C)C)C(=O)O` [Peptide L10-1.01, GGTLDFTVSAQADKL] (H-GGTLDFTVSAQADKL-OH) here?
A: > 2500 µg/mL

Q: With `CC(C)C[C@H](NC(=O)[C@H](CCCNC(=N)N)NC(=O)[C@H](CC(N)=O)NC(=O)[C@@H](N)CC(=O)O)C(=O)N[C@H](C(=O)N[C@@H](CC(N)=O)C(=O)N[C@@H](Cc1c[nH]cn1)C(=O)N[C@@H](Cc1ccccc1)C(=O)N[C@H](C(=O)N[C@@H](CC(N)=O)C(=O)N[C@@H](CCC(=O)O)C(=O)N[C@@H](Cc1ccccc1)C(=O)N[C@@H](CCCCN)C(=O)N[C@@H](CCCNC(=N)N)C(=O)N[C@@H](CCCCN)C(=O)O)[C@@H](C)O)C(C)C` [Peptide 40.2, DNRLVNHFTNEFKRK] (H-DNRLVNHFTNEFKRK-OH; N-terminus and C-terminus assumed) as the compound, how does the solubility read?
A: > 2500 µg/mL

Q: For `CC[C@H](C)[C@H](NC(=O)[C@H](CC(=O)O)NC(=O)[C@H](CC(=O)O)NC(=O)[C@H](CO)NC(=O)[C@@H](NC(=O)[C@H](CCCCN)NC(=O)[C@H](CCC(N)=O)NC(=O)[C@@H](N)CCCCN)C(C)C)C(=O)N[C@H](C(=O)N[C@@H](Cc1ccc(O)cc1)C(=O)N[C@H](C(=O)N[C@@H](C)C(=O)N[C@H](C(=O)N[C@@H](C)C(=O)N[C@H](C(=O)O)[C@@H](C)O)[C@@H](C)O)C(C)C)[C@@H](C)O` [Peptide L10-3, KQKVSDDITYVATAT] (H-KQKVSDDITYVATAT-OH), which solubility is on record?
A: > 2500 µg/mL

Q: Which solubility does the source give for `CC[C@H](C)[C@H](NC(=O)CNC(=O)[C@@H](N)C(C)C)C(=O)N[C@@H](Cc1ccccc1)C(=O)N[C@@H](CCCNC(=N)N)C(=O)N[C@@H](CC(=O)O)C(=O)N[C@@H](CC(=O)O)C(=O)N[C@@H](CCCNC(=N)N)C(=O)N[C@H](C(=O)N[C@@H](CCC(=O)O)C(=O)N[C@H](C(=O)N[C@H](C(=O)N[C@@H](C)C(=O)N[C@@H](CC(N)=O)C(=O)N[C@@H](CC(=O)O)C(=O)O)[C@@H](C)CC)[C@@H](C)CC)[C@@H](C)CC` [Peptide 50.2, VGIFRDDRIEIIAND] (H-VGIFRDDRIEIIAND-OH; N-terminus and C-terminus assumed) here?
A: < 2500 µg/mL

Q: For `CC[C@H](C)[C@H](NC(=O)[C@H](CC(=O)O)NC(=O)[C@H](CCC(N)=O)NC(=O)[C@@H]1CCCN1C(=O)[C@@H](NC(=O)[C@H](Cc1ccccc1)NC(=O)[C@H](CC(=O)O)NC(=O)[C@H](CO)NC(=O)[C@@H](N)CC(C)C)C(C)C)C(=O)N[C@@H](CCC(N)=O)C(=O)N[C@@H](CCCCN)C(=O)N[C@@H](CC(C)C)C(=O)N[C@@H](Cc1c[nH]c2ccccc12)C(=O)N[C@@H](Cc1c[nH]cn1)C(=O)N[C@@H](CO)C(=O)O` [Peptide 67.2, LSDFVPQDIQKLWHS] (H-LSDFVPQDIQKLWHS-OH), which solubility is on record?
A: > 2500 µg/mL

Q: For `CC[C@H](C)[C@H](NC(=O)[C@H](C)N)C(=O)N[C@@H](CCC(=O)O)C(=O)N[C@@H](CC(C)C)C(=O)N[C@@H](CCCCN)C(=O)N[C@@H](CO)C(=O)N[C@H](C(=O)N[C@@H](CC(N)=O)C(=O)N[C@@H](C)C(=O)N[C@@H](CC(C)C)C(=O)N[C@@H](CC(C)C)C(=O)N[C@@H](CC(C)C)C(=O)N[C@@H](CCCCN)C(=O)N[C@H](C(=O)N[C@@H](CC(N)=O)C(=O)O)C(C)C)C(C)C` [Peptide 61.2.1, AIELKSVNALLLKVN] (H-AIELKSVNALLLKVN-OH), which solubility is on record?
A: < 2500 µg/mL

Q: With `CC(C)C[C@H](NC(=O)[C@@H](NC(=O)CNC(=O)[C@H](Cc1c[nH]c2ccccc12)NC(=O)CNC(=O)[C@H](C)NC(=O)CN)C(C)C)C(=O)N[C@H](C(=O)N[C@@H](CO)C(=O)N[C@@H](Cc1c[nH]cn1)C(=O)N[C@@H](CCCNC(=N)N)C(=O)N[C@@H](CO)C(=O)NCC(=O)N[C@@H](CCC(=O)O)C(=O)N[C@H](C(=O)O)[C@@H](C)O)C(C)C` [Peptide 62.2.1, GAGWGVLVSHRSGET] (H-GAGWGVLVSHRSGET-OH) as the compound, how does the solubility read?
A: > 2500 µg/mL

Q: Which solubility does the source give for `CC(C)C[C@H](NC(=O)[C@@H](NC(=O)[C@H](C)NC(=O)[C@@H](N)[C@@H](C)O)[C@@H](C)O)C(=O)N1CCC[C@H]1C(=O)N[C@@H](CC(N)=O)C(=O)N[C@@H](Cc1ccc(O)cc1)C(=O)N[C@H](C(=O)N[C@@H](CCCNC(=N)N)C(=O)N[C@@H](C)C(=O)NCC(=O)NCC(=O)N[C@@H](CC(N)=O)C(=O)NCC(=O)N1CCC[C@H]1C(=O)O)C(C)C` [Peptide 37.4.1, TATLPNYVRAGGNGP] (H-TATLPNYVRAGGNGP-OH) here?
A: > 2500 µg/mL

Q: Which solubility does the source give for `CC(C)C[C@H](NC(=O)[C@H](CCC(N)=O)NC(=O)[C@H](Cc1c[nH]c2ccccc12)NC(=O)[C@H](Cc1c[nH]cn1)NC(=O)[C@H](CC(C)C)NC(=O)[C@@H](NC(=O)[C@H](CC(N)=O)NC(=O)[C@H](Cc1ccc(O)cc1)NC(=O)[C@H](CO)NC(=O)[C@H](CC(N)=O)NC(=O)[C@@H](NC(=O)[C@H](Cc1c[nH]c2ccccc12)NC(=O)[C@@H](NC(=O)[C@@H](NC(=O)CN)[C@@H](C)O)C(C)C)C(C)C)[C@@H](C)O)C(=O)O` [Peptide 72.2, GTVWVNSYNTLHWQL] (H-GTVWVNSYNTLHWQL-OH) here?
A: < 2500 µg/mL
